The numbers were not newly measured in patent US20040092491A1, “Method of treating sepsis-induced ARDS” (The Research Foundation of State University of New York, priority 2002, published 2004), which cites them from elsewhere.

One data set concerns microbes. To be noted: based on steady-state pharmacokinetics; cited from earlier work.
A further data set concerns neutrophil elastase. To be noted: LPS-induced acute lung injury, guinea pig; cited from earlier work.
The conditions of data set [1]: 250 mg every six hours over a twenty-four hour period; cited from earlier work.
The conditions of data set [2]: single dose of two 100 mg minocycline HCl tablets, adult humans; cited from earlier work.

Counter-ions that a name gives are not always drawn.

Consider `CN(C)[C@@H]1C(O)=C(C(N)=O)C(=O)[C@@]2(O)C(O)=C3C(=O)c4c(O)cccc4[C@@](C)(O)[C@H]3C[C@@H]12` [tetracycline, Tetracycline], for which, in the data set on microbes, the “Plasma antibiotic threshold level” value was 0.5 µg/mL.

Regarding `CC(C)(C)C(=O)Oc1ccc(S(=O)(=O)Nc2ccccc2C(=O)NCC(=O)O)cc1` [ONO-5046, N-[2-[4-(2,2-dimethylpropionyloxy)-phenylsulfonylamino]benzoyl]aminoacetic acid], in the data set on neutrophil elastase, the Neutrophil elastase activity result was “inhibits”.

Regarding `CN(C)[C@@H]1C(O)=C(C(N)=O)C(=O)[C@@]2(O)C(O)=C3C(=O)c4c(O)cccc4[C@@](C)(O)[C@H]3C[C@@H]12` [tetracycline HCl], the Peak plasma concentration result in data set [1] was “approximately 3 μg/ml”.

As for `CN(C)c1ccc(O)c2c1C[C@H]1C[C@H]3[C@H](N(C)C)C(O)=C(C(N)=O)C(=O)[C@@]3(O)C(O)=C1C2=O` [minocycline HCl], in data set [2], the “Average minocycline serum level” value is 2.24 µg/mL.
